In PMC9967275, “Screening the Pathogen Box to Discover and Characterize New Cruzain and TbrCatL Inhibitors” (Pathogens, 2023):

What was measured:
TbrCatL = biological target: T1, TbrCatL (Trypanosoma brucei rhodesiense, UniProt Q95PM0); experiment: TbrCatL enzymatic inhibition assay (cleavage of fluorogenic substrate Z-FR-AMC); type: biochemical; conditions: for TbrCatL 0’ Inhibition / TbrCatL 10’ Inhibition: sheet "Screening results"
T1 construct: Conor Caffrey (University of California San Diego)
T1 sequence (Q95PM0 entry or part of it): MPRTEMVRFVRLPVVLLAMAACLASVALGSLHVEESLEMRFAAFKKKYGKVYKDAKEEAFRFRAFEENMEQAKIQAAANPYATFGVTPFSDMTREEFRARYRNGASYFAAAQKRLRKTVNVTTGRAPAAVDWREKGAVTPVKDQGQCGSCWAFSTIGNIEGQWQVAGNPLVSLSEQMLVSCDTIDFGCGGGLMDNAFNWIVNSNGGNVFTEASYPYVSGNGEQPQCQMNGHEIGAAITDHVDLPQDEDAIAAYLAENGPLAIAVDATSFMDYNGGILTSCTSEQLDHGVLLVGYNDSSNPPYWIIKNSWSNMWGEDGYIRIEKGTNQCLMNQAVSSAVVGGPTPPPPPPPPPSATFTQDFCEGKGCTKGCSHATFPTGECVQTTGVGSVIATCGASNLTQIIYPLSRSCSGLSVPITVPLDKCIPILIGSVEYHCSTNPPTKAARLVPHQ
Summary of the method: (§1)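 Recombinant enzymes assayed by Z-Phe-Arg-AMC cleavage at 25 °C, fluorescence 340/440 nm over 5–7 min, with 10 min or no enzyme–compound preincubation.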

cruzain = cruzain (Trypanosoma cruzi, UniProt P25779); experiment: biochemical; conditions: for Cruzain 0’ Inhibition / Cruzain 10’ Inhibition: sheet "Screening results"
cruzain, sequence (P25779 123-337 limits assumed): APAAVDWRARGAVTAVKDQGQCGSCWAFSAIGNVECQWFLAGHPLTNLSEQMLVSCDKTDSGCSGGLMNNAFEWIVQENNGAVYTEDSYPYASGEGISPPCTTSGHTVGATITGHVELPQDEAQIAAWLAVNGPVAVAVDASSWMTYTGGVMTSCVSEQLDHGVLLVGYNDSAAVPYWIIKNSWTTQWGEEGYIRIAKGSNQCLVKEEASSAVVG
Summary of the method: as §1

[1] = 0’ (no pre-incubation), sheet Screening results
[2] = 10’ (pre-incubation), sheet Screening results
[3] = 0’ (pre-incubation time), Pathogen Box screening results
[4] = 10’ (pre-incubation time), Pathogen Box screening results
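Also: at 5 µM compound concentration.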

SMILES | TbrCatL Inhibition 0’ (TbrCatL; [1]) | TbrCatL Inhibition 10’ (TbrCatL; [2]) | Cruzain Inhibition 0’ (cruzain; [1]) | Cruzain Inhibition 10’ (cruzain; [2]) | TbrCatL 0’ Inhibition (TbrCatL; 0’ (pre-incubation time)) | TbrCatL 10’ Inhibition (TbrCatL; 10’ (pre-incubation time)) | Cruzain 0’ Inhibition (cruzain; 0’ (pre-incubation time)) | Cruzain 10’ Inhibition (cruzain; 10’ (pre-incubation time)) | further results
COc1ccccc1OCCCCn1c(C2CC2)nc2ccccc21 [MMV676474] | -3.8% | -17% | -7% | -11% |  |  |  |  | 
Cc1ccc(Oc2ccc(NC(=O)CNc3ccccc3N3CCCC3=O)cc2)cc1 [MMV020512] | -3.2% | -0.2% | 0.2% | 8% |  |  |  |  | 
Cc1cccnc1NC(=O)c1cccc(OCc2c(C)noc2C)c1 [MMV688793] | 14% | 10% | 16% | 10% |  |  |  |  | 
CC(=O)NC[C@H]1CN(c2ccc(N3CCSCC3)c(F)c2)C(=O)O1 [MMV688756] | 10% | 7% | 14% | 11% |  |  |  |  | 
Clc1ccc(CCNc2cc(-c3ccccc3)nc3ncnn23)cc1 [MMV688889] | 20% | 13% | 15% | 14% |  |  |  |  | 
CO[C@@H](C(=O)N1Cc2[nH]nc(NC(=O)c3ccc(N4CCN(C)CC4)cc3)c2C1)c1ccccc1 [MMV676600] | 7.5% | 11% | 24% | 12% |  |  |  |  | 
N#Cc1nc(-c2ccccc2F)oc1NCCc1ccccc1 [MMV676384] |  |  |  |  | 3.4% | 7% | 7% | 6% | 
COc1cccc(-c2nc3c(N4CCCC4)cccc3n2CC2CCCN2)n1 (stereo not shown) [MMV687703] |  |  |  |  | 26% | 16% | 14% | 11% | 
O=C(Nc1ccc(N2CCNCC2)cc1)c1ccn2ncc(-c3cccc(Cl)c3)c2n1 [MMV022478] |  |  |  |  | 1.7% | 10% | 15% | 18% | 
Cc1cc(NC(=O)c2ccc(Oc3ccc(Cl)cc3O)o2)no1 [MMV688955] |  |  |  |  | -6% | -12% | -9% | -13% | 
CC(C)(CN)c1nc(-c2ccc(Cl)c(O)c2)c(-c2ccnc(N)n2)[nH]1 [MMV030734] |  |  |  |  | 7.5% | -9.5% | 5% | -5.6% | 
CN1CCN(c2cc(-c3ccc(F)cc3)nc(-c3ccncc3)n2)CC1 [MMV688888] | 19% | 9% | 18% | 14% |  |  |  |  | 
CC(C)(C)c1cnc(NC(=O)c2ccccc2O)s1 [MMV495543] |  |  |  |  |  |  |  |  | TbrCatL Inhibition 0’ (TbrCatL; [3]): -9%; TbrCatL Inhibition 10’ (TbrCatL; [4]): 6.5%; Cruzain Inhibition 0’ (cruzain; [3]): -17%; Cruzain Inhibition 10’ (cruzain; [4]): 3.4%
N#Cc1ccc(-c2ccc(OCC(N)=O)cc2)cc1 [MMV053220] | -5.7% | -7% | -9% | -5% |  |  |  |  | 
O=C(NCCc1ccn(-c2ccccc2)n1)C1CCCCC1 [MMV688795] |  |  |  |  | 5% | 5.4% | 3.2% | 4% | 
O=C(c1n[nH]c2c1CCCC2)N1CCN(Cc2ccc3c(c2)OCO3)CC1 [MMV676389] | -12% | -7% | -6% | -3.4% |  |  |  |  | 
Cc1nc(-c2cccc(NCc3ccccc3)c2)[nH]c1C [MMV023227] |  |  |  |  | -7% | 22% | 2% | 15% | 
COc1ccc(-c2onc(C(F)(F)F)c2-c2ccc(Cl)cc2)c(O)c1 [MMV688766] |  |  |  |  | 0% | -5% | 1% | -2.5% | 
COc1ccc(CCN2CCC(NCc3cccc(N(C)C)c3)CC2)cc1 [MMV011511] |  |  |  |  | 0.4% | 9% | 5.7% | 3.6% | 
Nc1ncc(-c2ccc(C(F)(F)F)nc2)cc1-c1ccc(C(F)(F)F)nc1 [MMV668727] | 6.6% | -4.6% | 11% | -3% |  |  |  |  | 
O=C(NC1CC1)c1ccc(N2CCOc3ccc(Cl)cc32)s1 [MMV020537] | 8% | 6% | 18% | 9% |  |  |  |  | 
CC(C)(C)c1cc(C(=O)N2CCN(c3nccnc3C#N)CC2)n(Cc2ccccc2)n1 [MMV023949] |  |  |  |  | 12% | -3% | -0.2% | 6% | 

SMILES | TbrCatL Inhibition 0’ (TbrCatL; [1]) | TbrCatL Inhibition 10’ (TbrCatL; [2]) | Cruzain Inhibition 0’ (cruzain; [1]) | Cruzain Inhibition 10’ (cruzain; [2]) | TbrCatL 0’ Inhibition (TbrCatL; 0’ (pre-incubation time)) | TbrCatL 10’ Inhibition (TbrCatL; 10’ (pre-incubation time)) | Cruzain 0’ Inhibition (cruzain; 0’ (pre-incubation time)) | Cruzain 10’ Inhibition (cruzain; 10’ (pre-incubation time)) | further results
FC(F)(F)c1cnc(Sc2nnc(-c3ccncc3)o2)c(Cl)c1 [MMV011765] |  |  |  |  | -4% | -1.2% | 0.7% | -0.5% | 
Cc1ccc(NC(=O)c2cc(S(=O)(=O)NC(C)(C)C)ccc2C)nc1 [MMV020289] |  |  |  |  | 1.9% | 1.3% | 1% | 1.9% | 
c1ccc2c(c1)CN(CC1CC1)CC1(CCN(Cc3c[nH]c4cnccc34)CC1)O2 [MMV023183] |  |  |  |  | 6% | 1.8% | 3.5% | 15% | 
CC(C)(C)n1nc(Cc2cccc3ccccc23)c2c(N)ncnc21 [MMV676599] |  |  |  |  | 4.6% | -5% | 9% | 11% | 
COc1ccc(C2(C(=O)Nc3ccc(Br)cc3)CCCC2)cc1 [MMV200748] |  |  |  |  | -2.7% | -3% | 3.8% | 4% | 
Cc1ccc(S(=O)(=O)N2CCN(C(=O)c3cc(-c4ccccc4)n[nH]3)CC2)cc1 [MMV019742] | 3.5% | -2.5% | -5% | -3% |  |  |  |  | 
COc1cccn2c(C(=O)N3CCCCC3)c(C(F)(F)F)nc12 [MMV1110498] | 13% | 6.4% | 8% | 9% |  |  |  |  | 
c1csc(-c2cnc3sc(NCC4CCOCC4)nn23)c1 [MMV010764] | 14% | 19% | 14% | 16% |  |  |  |  | 
Cc1ccc(C(=O)Nc2ccc(S(=O)(=O)O)c3cc(S(=O)(=O)O)cc(S(=O)(=O)O)c23)cc1NC(=O)c1cccc(NC(=O)Nc2cccc(C(=O)Nc3cc(C(=O)Nc4ccc(S(=O)(=O)O)c5cc(S(=O)(=O)O)cc(S(=O)(=O)O)c45)ccc3C)c2)c1 [MMV637953] | -4.4% | -0.2% | 32% | 21% |  |  |  |  | 
O=C(Cn1ccnc1[N+](=O)[O-])NCc1ccccc1 [MMV688773] | 4.3% | 3.7% | 19% | 4% |  |  |  |  | 
CCN(CC)S(=O)(=O)c1ccc(Cl)c(C(=O)Nc2ccc3nc(C)sc3c2)c1 [MMV019721] | 5% | -2.6% | 6.4% | 6.4% |  |  |  |  | 
Cc1cc(C(=O)Nc2ccc(-c3ccccc3)cc2)no1 [MMV020152] | -2% | 1.1% | 3.7% | -0.4% |  |  |  |  | 
Clc1ccc(CN2CCN(C3=NCCN3)CC2)cc1Cl [MMV689060] | -5% | 2% | -3% | -0.1% |  |  |  |  | 
COc1ccc(S(=O)(=O)Nc2ccc(CN3CCN(C(=O)c4cccc(C#N)c4)CC3)cc2)cc1 [MMV689029] |  |  |  |  | 0.7% | 1.2% | 2.5% | 5.4% | 
FC(F)(F)c1ccc(N(c2cccnc2)C2CCN(c3ccc(C(F)(F)F)cn3)CC2)cc1 [MMV689243] |  |  |  |  | -9% | -5% | 2.3% | -3% | 
COc1cccc(-n2nnnc2S(C)(=O)=O)c1 [MMV272144] |  |  |  |  |  |  |  |  | TbrCatL Inhibition 0’ (TbrCatL; [3]): -11%; TbrCatL Inhibition 10’ (TbrCatL; [4]): 9%; Cruzain Inhibition 0’ (cruzain; [3]): -1.3%; Cruzain Inhibition 10’ (cruzain; [4]): 11%
CNc1cc(C)nc(C2CN(C(=O)c3n[nH]c4ccccc34)CCO2)c1 (stereo not shown) [MMV689709] |  |  |  |  | 8% | 3.8% | -1.4% | 1.3% | 
CC(C)(C(=O)Nc1ccc(F)cc1)n1cc(-c2ccccc2F)cn1 [MMV687239] | 1.1% | -6% | 7% | -3% |  |  |  |  | 
Cc1c[nH]c(CCNC(=O)c2cc(-c3ccc(Cl)cc3)cs2)n1 [MMV676350] | 28% | 28% | 17% | 22% |  |  |  |  | 
CCc1ccc([C@@H]2C[C@H](C(F)(F)F)n3ncc(C(=O)NCc4ccc(OC)cc4)c3N2)cc1 [MMV687180] |  |  |  |  | -4.3% | -11% | -9% | -7% | 
NCCC[C@@](N)(C(=O)O)C(F)F [MMV001625] | 2% | -1.9% | 20% | 7% |  |  |  |  | 
